Measured values: article PMC12298423, “Characterization of Novel ACE-Inhibitory Peptides from Nemopilema nomurai Jellyfish Venom Hydrolysate: In Vitro and In Silico Approaches” (Marine Drugs, 2025)
Peptide text beside a SMILES is read from it.

What was measured:
[1] = molecular target: T1, angiotensin-converting enzyme (ACE) (Homo sapiens, UniProt P12821); assay: ACE-inhibitory activity, ACE Kit-WST (Dojindo); format: biochemical; details: peptide 0.01-1000 µM, 37 °C 1 h, absorbance 450 nm, triplicate, read-out: IC50 (ACE inhibition)
T1 construct: purchased Dojindo Laboratories, Kumamoto, Japan
Description: The ACE-inhibitory activity of the peptides was evaluated in vitro using the Dojindo assay kit, following the same procedure as described in our previous study. […] Captopril was used as a positive control to validate the assay system. To assess the stability of the peptides under simulated gastrointestinal (GI) conditions, a two-step enzymatic hydrolysis was conducted. The ACE-inhibitory activity of the peptides was measured both before and after digestion (Figure 1B,C).
The ACE-inhibitory activity of the peptides was assessed using the ACE Kit-WST (Dojindo Laboratories, Kumamoto, Japan) following the manufacturer’s protocol. Both peptides were dissolved in distilled water, and serial dilutions were prepared at concentrations of 0.01, 0.10, 1, 10, 100, and 1000 µM. Captopril was used as the positive control. For the assay, 20 µL of each sample solution was added to the designated wells, including the sample, blank 1, and blank 2 wells. Subsequently, 20 µL of substrate buffer was added to all wells. […] Absorbance was measured at 450 nm using a microplate reader. ACE-inhibitory activity was calculated using the following equation:ACE inhibition (%) = (Ablank1 − Asample)/(Ablank1 − Ablank2) × 100 where Ablank1 is the absorbance of the control (without inhibitor), Ablank2 is the absorbance of the reagent alone, and Asample is the absorbance of the peptide-treated sample.

[2] = test system: pepsin, trypsin and chymotrypsin; assay: Resistance to simulated GI digestion assay; format: in vitro ADME; details: peptide 100 and 200 µM; pepsin 0.01% pH 2.0, 37 °C, 3 h, then trypsin and chymotrypsin each 0.01% pH 7.5, 3 h; read-out ACE-inhibitory activity; triplicate
Description: The stability of the synthesized peptides against gastrointestinal proteases was evaluated using a slightly modified method based on Dong et al. (2024). Peptide solutions at concentrations of 100 and 200 µM were sequentially subjected to enzymatic digestion. Initially, the peptides were incubated with pepsin (0.01%, pH 2.0) at 37 °C for 3 h. This was followed by a second digestion step with trypsin and chymotrypsin (each at 0.01%, pH 7.5) for an additional 3 h under the same temperature conditions. To terminate enzymatic activity, the reaction mixtures were boiled for 10 min. The samples were then centrifuged at 8000× g for 15 min, and the resulting supernatants were collected. The ACE-inhibitory activity of the digested peptide solutions was subsequently analyzed to assess their enzymatic stability.

[3] = molecular target: ACE (Homo sapiens, UniProt P12821); assay: Lineweaver–Burk plot and secondary plot (ACE inhibition kinetics); format: biochemical; details: secondary plot from Lineweaver–Burk plots; substrate HHL 0.625 to 20 mM
Description: The inhibition pattern of the peptides against ACE was analyzed using Lineweaver–Burk plots. ACE activity was measured at varying concentrations of each peptide (IGDEPRHQYL: 0, 5, and 10 µM; IVGRPLANG: 0, 20, and 40 µM) in the presence of different concentrations of the substrate hippuryl-histidyl-leucine (HHL), ranging from 0.625 to 20 mM. The Michaelis constant (Km) and maximum reaction velocity (Vmax) were calculated from the slope and y-intercept of the Lineweaver–Burk plots. Additionally, secondary plots were generated to determine the inhibition constant (Ki) values for each peptide based on the derived Km and Vmax values.

Chain of ACE (P12821 30-1306, species assumed): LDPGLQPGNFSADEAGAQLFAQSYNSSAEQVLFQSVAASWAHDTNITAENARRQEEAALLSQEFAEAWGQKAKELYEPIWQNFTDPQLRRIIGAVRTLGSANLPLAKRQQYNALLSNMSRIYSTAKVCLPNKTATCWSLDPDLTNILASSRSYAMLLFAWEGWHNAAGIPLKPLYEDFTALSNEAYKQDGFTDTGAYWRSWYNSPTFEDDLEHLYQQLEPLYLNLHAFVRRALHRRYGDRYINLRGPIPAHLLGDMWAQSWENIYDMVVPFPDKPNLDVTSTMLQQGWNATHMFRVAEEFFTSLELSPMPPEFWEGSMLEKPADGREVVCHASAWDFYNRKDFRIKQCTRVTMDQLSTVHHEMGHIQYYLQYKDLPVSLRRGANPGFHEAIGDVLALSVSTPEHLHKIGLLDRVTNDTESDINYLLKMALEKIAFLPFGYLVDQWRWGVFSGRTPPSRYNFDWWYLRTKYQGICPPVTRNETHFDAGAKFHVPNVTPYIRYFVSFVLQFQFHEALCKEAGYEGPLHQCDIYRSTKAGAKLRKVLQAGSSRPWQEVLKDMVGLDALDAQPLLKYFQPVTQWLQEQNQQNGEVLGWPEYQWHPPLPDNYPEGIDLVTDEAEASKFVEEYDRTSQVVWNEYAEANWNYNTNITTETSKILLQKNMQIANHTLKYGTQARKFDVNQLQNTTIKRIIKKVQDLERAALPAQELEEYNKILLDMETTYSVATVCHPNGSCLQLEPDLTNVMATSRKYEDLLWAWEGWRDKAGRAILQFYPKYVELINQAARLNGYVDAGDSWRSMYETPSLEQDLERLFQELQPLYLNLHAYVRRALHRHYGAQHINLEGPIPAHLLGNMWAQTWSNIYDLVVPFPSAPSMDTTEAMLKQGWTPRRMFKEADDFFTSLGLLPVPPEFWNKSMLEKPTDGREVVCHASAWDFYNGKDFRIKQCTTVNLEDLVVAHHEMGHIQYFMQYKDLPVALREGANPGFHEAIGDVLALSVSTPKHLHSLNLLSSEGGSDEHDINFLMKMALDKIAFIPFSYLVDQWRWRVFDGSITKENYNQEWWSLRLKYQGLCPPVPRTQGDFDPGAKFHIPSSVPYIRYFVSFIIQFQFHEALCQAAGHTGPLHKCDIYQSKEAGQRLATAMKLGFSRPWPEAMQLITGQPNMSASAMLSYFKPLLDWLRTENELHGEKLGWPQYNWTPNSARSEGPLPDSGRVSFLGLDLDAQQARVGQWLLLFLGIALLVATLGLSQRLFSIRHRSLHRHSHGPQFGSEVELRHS
T1 sequence (P12821 30-1306, species assumed): as above

Row | Structure (SMILES) | IC50 [1] [µM] | ACE-inhibitory activity before and after simulated GI digestion [2] | Ki [3] [µM]
1 | CC[C@H](C)[C@H](N)C(=O)N[C@H](C(=O)NCC(=O)N[C@@H](CCCNC(=N)N)C(=O)N1CCC[C@H]1C(=O)N[C@@H](CC(C)C)C(=O)N[C@@H](C)C(=O)N[C@@H](CC(N)=O)C(=O)NCC(=O)O)C(C)C [IVGRPLANG] (H-IVGRPLANG-OH) | 23.8 | retained their ACE-inhibitory activity | 51.4
2 | CC[C@H](C)[C@H](N)C(=O)NCC(=O)N[C@@H](CC(=O)O)C(=O)N[C@@H](CCC(=O)O)C(=O)N1CCC[C@H]1C(=O)N[C@@H](CCCNC(=N)N)C(=O)N[C@@H](Cc1c[nH]cn1)C(=O)N[C@@H](CCC(N)=O)C(=O)N[C@@H](Cc1ccc(O)cc1)C(=O)N[C@@H](CC(C)C)C(=O)O [IGDEPRHQYL] (H-IGDEPRHQYL-OH) | 5.68 | retained their ACE-inhibitory activity | 5.46
